The results in this text go back to patent US20060014806A1 (published 2006).

For orientation: melting point means the temperature of the solid-liquid transition.

The compound `COC(=O)NCC#Cc1ccc(OCCCOc2c(Cl)cc(OCC=C(Cl)Cl)cc2Cl)cc1` came in with a melting point of 78 to 81 °C. In the case of `CC(C)NC(=O)/C(C#N)=C/c1ccc(OCCCOc2c(Cl)cc(OCC=C(Cl)Cl)cc2Cl)cc1` it was 88 to 93 °C; in that of `CO/N=C1/C=C(c2ccc(OCCCOc3c(Cl)cc(OCC=C(Cl)Cl)cc3Cl)cc2)CC1`, 100 to 103 °C.
